Source: patent publication US20240207207A1, “METHODS FOR MITIGATING AND PREVENTING PROTEOSTASIS-BASED INJURIES” (San Diego State University (SDSU) Foundation, dba San Diego …, priority 2018, published 2024)

How the values were obtained:
[1] = general in vivo properties (brain penetration, tolerance)
Description: (§1) Malondialdehyde assay. Lipid peroxidation was determined by measuring the levels of malondialdehyde (MDA) using a TBARS assay kit (Cayman Chemical, Ann Arbor, MI) according to the manufacturer's instructions as previously described^10. In vivo experimental compound administration. Control compound and compound 147 were suspended to a final concentration of 0.2 mg/mL in 10% DMSO. Mice were weighed prior to administration of compounds and, subsequently, non-anesthetized 10-week old WT or ATF6 cKO mice were injected with ˜250 μL of stock compounds via the lateral tail vein depending upon body mass to ensure accurate administration of 2 mg/kg. […] Since compound 147 and tunicamycin have similar molecular weights, this dose of compound 147 is near the molar equivalent of the typical dose of tunicamycin. It is relevant to note that for compound 147, a dose of 2 mg/kg is similar to FDA-approved cardiovascular drugs, such as many angiotensin-converting enzyme (ACE) inhibitors, which are used in small-animal models at 2 mg/kg^42.

[2] = tested on: IRE1-regulated Erdj4, PERK-regulated Atf4; test: qPCR for IRE1 and PERK target genes in mouse hearts; type: in vivo; details: WT or ATF6 cKO mice, 24 hours after treatment, LV
Description: (§2) Immunoblot analysis. NRVM were lysed and subjected to immunoblot analysis, as previously described^10. In brief, cultures were lysed with VC lysis buffer made from 20 mM Tris-HCl (pH 7.5), 150 mM NaCl, 0.1% SDS, 1% Triton X-100™, protease inhibitor cocktail (Roche Diagnostics, Indianapolis, IN) and phosphatase inhibitor cocktail (Roche Diagnostics). Samples comprising 10 μg of protein were mixed with Laemmli sample buffer, boiled, then subjected to SDS-PAGE followed by transfer onto PVDF membranes for immunoblotting. Full-length Atf6 (p90) was detected with an antibody from SAB Signalway™ Antibody (1:1000, cat #32008, College Park, MD), while active Atf6 (p50) was detected with an antibody from Proteintech™ (1:1000, cat #24169-1-AP, Rosemont, IL). […] The oxidation state of ATF6 in NRVM treated with compound 147 was analyzed by gel-shift essentially as previously described^32. […]
(§3) Malondialdehyde assay. Lipid peroxidation was determined by measuring the levels of malondialdehyde (MDA) using a TBARS assay kit (Cayman Chemical, Ann Arbor, MI) according to the manufacturer's instructions as previously described^10. […]

[3] = tested on: acute myocardial I/R injury; test: acute in vivo myocardial ischemia/reperfusion; parameters: species or system mouse; details: acute I/R protocol, 24 h
Description: In vivo myocardial ischemia/reperfusion. Surgical myocardial I/R was performed as previously described^10. Briefly, mice were anesthetized with 2% isoflurane and a thoracotomy was performed to isolate the heart, after which the left anterior descending coronary artery (LAD) was ligated with a 6-0 Prolene™ suture for 30 minutes, followed by suture removal and either 24 hours or 7 days of reperfusion. Regional ischemia was confirmed by visual inspection of the discoloration of the myocardium distal of the ligation, which is characteristic of impaired blood flow. Animals assigned as shams underwent the thoracotomy surgical procedure, but weren't subjected to LAD ligation. […] The AAR, INF and left ventricle area (LV) from digitized images of heart sections were analyzed using ImageJ software. […] A separate investigator analyzed the AAR, INF, and LV and was blinded to the animal trial assignments. […] Blood was placed in heparin- and EDTA-coated vacutainer (BD Vacutainer) and centrifuged at 3000 rpm for 10 minutes and plasma samples were analyzed for cardiac troponin I with a Mouse cTnI High-Sensitivity ELISA kit (Life Diagnostics, Inc.).
Transthoracic echocardiography. […] Diastolic function was determined as previously described^33. […] Waveforms were recorded and analyzed for peak early- and late-diastolic transmitral flow velocities corresponding to E and A waves, respectively. […]

[4] = tested on: ATF6-regulated genes Grp78 and Cat; test: ATF6 target gene induction in mouse tissues after intravenous administration (qPCR, IHC, immunoblot); details: in vivo, mouse heart
Description: as §2, §3

[5] = tested on: hearts of mice that were not subjected to I/R; test: 7-day dosing protocols in mice not subjected to I/R: cardiac performance and safety; type: in vivo, mouse
Description: In vivo myocardial ischemia/reperfusion. Surgical myocardial I/R was performed as previously described^10. Briefly, mice were anesthetized with 2% isoflurane and a thoracotomy was performed to isolate the heart, after which the left anterior descending coronary artery (LAD) was ligated with a 6-0 Prolene™ suture for 30 minutes, followed by suture removal and either 24 hours or 7 days of reperfusion. Regional ischemia was confirmed by visual inspection of the discoloration of the myocardium distal of the ligation, which is characteristic of impaired blood flow. Animals assigned as shams underwent the thoracotomy surgical procedure, but weren't subjected to LAD ligation. Animals were randomly assigned to trial groups prior to outset of the experiment by a single investigator, while the surgeon and data analyst were blinded to trial assignments. Animals designated to receive either control compound or compound 147 at the time of reperfusion received 2 mg/kg of respective compounds via IV injection 5 minutes prior to release of the ligation. Twenty-four hours after reperfusion, 1% of Evans Blue was injected apically to determine the area at risk (AAR). Hearts were harvested and 1-mm sections of the hearts were stained with 1% 2,3,5-triphenyltetrazolium chloride (TTC) to measure the infarcted area (INF) as previously described^36. The AAR, INF and left ventricle area (LV) from digitized images of heart sections were analyzed using ImageJ software. […] A separate investigator analyzed the AAR, INF, and LV and was blinded to the animal trial assignments. […] Blood was placed in heparin- and EDTA-coated vacutainer (BD Vacutainer) and centrifuged at 3000 rpm for 10 minutes and plasma samples were analyzed for cardiac troponin I with a Mouse cTnI High-Sensitivity ELISA kit (Life Diagnostics, Inc.).
Hepatic triglyceride assay. Hepatic triglyceride assay was performed as previously described^39. Briefly, livers were harvested and 10 mg extracts were homogenized and analyzed for triglyceride content using the EnzyChrom Triglyceride Assay Kit™ (BioAssay Systems).
Transthoracic echocardiography. Transthoracic echocardiography was performed using an ultrasound imaging system (Vevo 2100 System™, Fujifilm VisualSonics, Toronto, Ontario, Canada) as described^40. Diastolic function was determined as previously described^33. Briefly, echocardiography coupled with pulse-wave Doppler was used to visualize transmitral flow velocities and were recorded by imaging the mitral orifice at the point of the mitral leaflets. Waveforms were recorded and analyzed for peak early- and late-diastolic transmitral flow velocities corresponding to E and A waves, respectively.
as §1, with “It is relevant to note that for compound 147, a dose of 2 mg/kg is similar to FDA-approved cardiovascular drugs, such as many angiotensin-converting enzyme (ACE) inhibitors, which are used in small-animal models at 2 mg/kg^42.” left out

[6] = Trials 1-3, 7 days, mice without I/R

**Q.** Which results are given for `Cc1ccc(O)c(NC(=O)CCc2ccccc2)c1` [compound 147]?
**A.** blood brain barrier crossing [1]: has the capacity to cross the blood brain barrier; toxicity or deleterious off-target effects [1]: does not exhibit any apparent toxicity or deleterious off-target effects; expression levels of Erdj4 or Atf4 in hearts [2]: no effect; cardiac performance, chamber size, or pathological hypertrophy by echocardiography [3]: no effect; duration of ATF6-target gene induction [4]: ~3 days; expression of pathology-associated genes Nppa, Nppb, Col1a1 or Myh7 [5, 6]: None of the dosing protocols resulted in; increased plasma cTnI [5, 6]: None of the dosing protocols resulted in; pathological cardiac hypertrophy (heart weight to body weight) [5, 6]: None of the dosing protocols resulted in; liver or kidney deficits (steatosis by hepatic triglyceride accumulation, glomerular filtration rate by creatinine clearance) ([5]; any of the trials, data not shown): no apparent deficits were observed; cardiotoxicity ([5]; over the course of 7 days): does not induce cardiotoxicity
